{"source": "patent US20240408005A1", "about": "“USE OF CALCIUM SENSING RECEPTOR ANTAGONISTS FOR TREATING OCULAR DISORDERS” (The Regents of the University of California, priority 2023, published 2024)", "key": {"[1]": {"test_system": "CFTR", "assay": "Ocular surface potential difference (OSPD), forskolin / CFTRinh-172 responses", "assay_type": "in vivo, mouse", "source_text": "(§1) Using pharmacological activators and inhibitors, OSPD allows studying activities of various ion channels/transporters in the ocular surface.^12 In these studies, baseline OSPD is established using a high Cl^− solution that mimics the tear film. OSPD changes induced by amiloride (ENaC inhibitor) indicates Na^+ transport via ENaC. Similarly, OSPD changes induced by forskolin (cAMP agonist) and CFTRinh-172 (CFTR inhibitor) indicates Cl^− secretion via cAMP-activated Cl^− channels and particularly CFTR. Lastly, OSPD changes induced by Ca^2+ agonist ATP indicates Cl^− secretion mediated by CaCCs.\nSequential perfusion of the ocular surface with solutions containing amiloride (ENaC inhibitor), forskolin (cAMP agonist), CFTRinh-172 (CFTR inhibitor), and ATP (Ca^2+ agonist) thus allows determining activities of ENaC, CFTR, and CaCC ion channels, respectively (FIG. 4A).\nThe compositions of perfusion solutions follow the solutions used in the standardized human nasal and ocular potential difference protocol.^12,13 Solutions #1-3 (high Cl^−, amiloride, and low Cl^−, respectively) were made in 1-liter batches, pH balanced to 7.4, and filtered in a sterile environment prior to refrigeration and used within 3 months. Solution #1 (high Cl^−) contained 1 L Ringer's injection (containing 147 mM NaCl, 2 mM CaCl2), 4 mM KCl, 2.4 mM K2HPO4, 0.4 mM KH2PO4, and 1.2 mM MgCl2. 100 μM amiloride was added to Solution #1 to create Solution #2 (amiloride). Solution #3 (low Cl^−) was identical to Solution #1, except NaCl was replaced with sodium gluconate. Cinacalcet (CaSR agonist) and NPS-2143 (CaSR antagonist) were purchased from Tocris Bioscience (Minneapolis, MN, USA). All other chemicals were purchased from Sigma-Aldrich (St. Louis, MO, USA).\nOcular surface potential difference (OSPD) and tear fluid volume measurements were performed in mice with topically applied cinacalcet (CaSR activator) and NPS-2143 (CaSR inhibitor). Mice were anesthetized with isoflurane and body temperature was maintained at 37° C. via a heating pad. As described previously,^12,14,15 open-circuit transepithelial potential differences were measured in response to serial perfusions of different isoosmolar (310 mOsm/kg H2O) solutions over the ocular surface at 5-10 ml/min. The measuring electrode was in contact with the perfusion catheter which was carefully positioned using a three-axis micromanipulator directly above the mouse ocular surface and the reference electrode was grounded via a 23-gauge butterfly needle agar bridge inserted subcutaneously in the back. Measuring and reference electrodes consisted of Ag/AgCl with 3 M KCl agar bridges, and both electrodes were connected to an ISO-Z headstage, BMA-200 high-impedance amplifier/voltmeter, and PowerLab analog-to-digital converter (ADInstruments; Colorado Springs, CO, USA) connected to a computer (FIG. 1). Each solution was perfused onto the ocular surface using a gravity perfusion system (ALA Scientific; Farmingdale, NY, USA) for 1-3 minutes until a stable OSPD reading was obtained."}, "[2]": {"assay": "Tear fluid volume by endodontic absorbent paper point tear test (EAPPTT)", "assay_type": "in vivo, BALB/c mice", "settings": "for EAPPTT wetting length: 0.001% single 10 μL dose, baseline 2.3±0.2 mm", "description": "[…] All mice were kept at ambient conditions (approximately 50% humidity and 21° C.) and provided unrestricted access to food and water."}, "[3]": {"test_system": "ENaC", "assay": "Ocular surface potential difference (OSPD), amiloride-induced depolarization", "assay_type": "in vivo, mouse", "settings": "topical, 100 μM amiloride, 0-30 μM cinacalcet in all solutions", "source_text": "as §1, with “CaCCs. […]” for “CaCCs.”\n(§2) Ocular surface potential difference (OSPD) and tear fluid volume measurements were performed in mice with topically applied cinacalcet (CaSR activator) and NPS-2143 (CaSR inhibitor). […] As described previously,^12,14,15 open-circuit transepithelial potential differences were measured in response to serial perfusions of different isoosmolar (310 mOsm/kg H2O) solutions over the ocular surface at 5-10 ml/min. […] Each solution was perfused onto the ocular surface using a gravity perfusion system (ALA Scientific; Farmingdale, NY, USA) for 1-3 minutes until a stable OSPD reading was obtained."}, "[4]": {"test_system": "CaCC", "assay": "Ocular surface potential difference (OSPD), ATP-induced hyperpolarization", "assay_type": "in vivo, mouse", "source_text": "as §1, with “CaCCs. […]” for “CaCCs.”\nas §2"}, "[5]": {"test_system": "mouse ocular surface", "assay": "Baseline ocular surface potential difference (OSPD)", "assay_type": "in vivo", "settings": "topically administered, mice", "source_text": "as §1, with “CaCCs. […]” for “CaCCs.”\nas §2"}, "[6]": {"settings": "in vivo; cited from earlier work"}}}
{"smiles": "CC(C)(Cc1ccc2ccccc2c1)NC[C@@H](O)COc1cccc(Cl)c1C#N", "note": "[NPS-2143, 2-chloro-6-[(2R)-3-([1,1-dimethyl-2-(2-naphthalenyl)ethyl]amino)-2-hydroxypropoxy]benzonitrile]", "values": [{"measurement": "reversal of response by CFTR inhibitor CFTRinh-172", "setting": "[1]; 30 μM, 10 μM CFTRinh-172", "result": "partially reversed"}, {"measurement": "hyperpolarization relative to subsequently applied maximal forskolin-induced hyperpolarization", "setting": "[1]; 30 μM, 10 μM forskolin", "result": 70, "unit": "%"}, {"measurement": "hyperpolarization (OSPD change)", "setting": "[1]; perfusion of ocular surface with 30 μM", "result": "−13", "unit": "mV"}, {"measurement": "increased tear fluid volume", "setting": "[2]; 0.001% or 30 μM, single 10 μL dose, 15 minutes after treatment", "result": 60, "unit": "%"}, {"measurement": "EAPPTT wetting length", "setting": "[2]; 15 minutes after administration, mean±SEM", "result": "3.6±0.2", "unit": "mm"}, {"measurement": "EAPPTT wetting length", "setting": "[2]; 8 hours after administration", "result": "3.6±0.2", "unit": "mm"}, {"measurement": "reversibility of effect on tear volume", "setting": "[2]; 24 h after treatment", "result": "return of tear volume to near baseline values"}, {"measurement": "increase of tear fluid volume", "setting": "[2]; single dose topical 0.001% or 30 μM, for at least eight hours", "result": "> 60", "unit": "%"}]}
{"smiles": "C[C@@H](NCCCc1cccc(C(F)(F)F)c1)c1cccc2ccccc12", "note": "[cinacalcet]", "values": [{"measurement": "effect on ENaC activity / Na+ absorption mediated by ENaC (amiloride-induced depolarization)", "setting": "[3]", "result": "no effect"}, {"measurement": "inhibition of ATP response", "setting": "[4]; 30 μM cinacalcet, 100 μM ATP, without prior forskolin and CFTRinh-172, FIG. 5", "result": "~50", "unit": "%"}, {"measurement": "lower ATP-induced hyperpolarization (CaCC activity)", "setting": "[4]; 100 μM ATP added after forskolin and CFTRinh-172, FIG. 4F", "result": 90, "unit": "%"}, {"measurement": "lower CFTRinh-172 response (CFTR activity)", "setting": "[1]; at 30 μM, 10 μM CFTRinh-172, FIG. 4E", "result": "up to 90%"}, {"measurement": "lower forskolin response (CFTR activity)", "setting": "[1]; at 30 μM, 10 μM forskolin, FIG. 4D", "result": "up to 90%"}, {"measurement": "inhibition of forskolin-induced Cl− secretion and CFTR activity", "setting": "[1]; at 30 μM, concentration-dependent, topical, mice", "result": "up to 90%"}, {"measurement": "effect on baseline OSPD", "setting": "[5]", "result": "no effect"}]}
{"smiles": "O=c1ccn([C@@H]2O[C@H](COP(=O)(O)OP(=O)(O)OP(=O)(O)OP(=O)(O)OC[C@H]3O[C@@H](n4ccc(=O)[nH]c4=O)[C@H](O)[C@@H]3O)[C@@H](O)[C@H]2O)c(=O)[nH]1", "note": "[diquafosol]", "values": [{"measurement": "outcome of clinical trials for DED", "setting": "[6]", "result": "did not meet the primary endpoints"}]}
